Experimental findings from patent US8598202B2, “Aryl-hydroxyethylamino-pyrimidines and triazines as modulators of fatty acid amide hydrolase” (Janssen Pharmaceutica NV, priority 2008, dated 2013) are described below.

Counter-ions that a name gives are not always drawn. Like-named read-outs stand apart in the source and are kept apart here.

Experiment [1] deals with T1, FAAH (Homo sapiens, UniProt O00519).
T1 sequence (O00519 1-579): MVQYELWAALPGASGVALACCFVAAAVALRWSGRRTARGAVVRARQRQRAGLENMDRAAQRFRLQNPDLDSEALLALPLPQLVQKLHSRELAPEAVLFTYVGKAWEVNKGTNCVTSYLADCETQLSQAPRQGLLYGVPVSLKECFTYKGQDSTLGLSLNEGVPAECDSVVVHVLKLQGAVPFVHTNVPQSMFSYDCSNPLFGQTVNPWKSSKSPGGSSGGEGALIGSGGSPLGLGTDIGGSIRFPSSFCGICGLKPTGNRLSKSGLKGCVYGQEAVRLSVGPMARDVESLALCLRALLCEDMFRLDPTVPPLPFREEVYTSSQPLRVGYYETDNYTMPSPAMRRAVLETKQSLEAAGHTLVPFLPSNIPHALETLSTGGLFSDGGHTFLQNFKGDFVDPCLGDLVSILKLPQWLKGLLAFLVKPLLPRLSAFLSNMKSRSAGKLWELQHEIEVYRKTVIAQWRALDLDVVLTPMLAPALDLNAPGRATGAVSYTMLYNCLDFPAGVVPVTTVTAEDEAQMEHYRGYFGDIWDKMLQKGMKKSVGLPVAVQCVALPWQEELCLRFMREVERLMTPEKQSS
Description: Assay Method 1: FAAH assay, 3H-anandamide hydrolysis in homogenate of T84 cells or SK-N-MC cells transfected with human FAAH.

Experiment [2] deals with T2, Rat FAAH-1 (Rattus norvegicus, UniProt P97612).
T2 sequence (P97612 1-579): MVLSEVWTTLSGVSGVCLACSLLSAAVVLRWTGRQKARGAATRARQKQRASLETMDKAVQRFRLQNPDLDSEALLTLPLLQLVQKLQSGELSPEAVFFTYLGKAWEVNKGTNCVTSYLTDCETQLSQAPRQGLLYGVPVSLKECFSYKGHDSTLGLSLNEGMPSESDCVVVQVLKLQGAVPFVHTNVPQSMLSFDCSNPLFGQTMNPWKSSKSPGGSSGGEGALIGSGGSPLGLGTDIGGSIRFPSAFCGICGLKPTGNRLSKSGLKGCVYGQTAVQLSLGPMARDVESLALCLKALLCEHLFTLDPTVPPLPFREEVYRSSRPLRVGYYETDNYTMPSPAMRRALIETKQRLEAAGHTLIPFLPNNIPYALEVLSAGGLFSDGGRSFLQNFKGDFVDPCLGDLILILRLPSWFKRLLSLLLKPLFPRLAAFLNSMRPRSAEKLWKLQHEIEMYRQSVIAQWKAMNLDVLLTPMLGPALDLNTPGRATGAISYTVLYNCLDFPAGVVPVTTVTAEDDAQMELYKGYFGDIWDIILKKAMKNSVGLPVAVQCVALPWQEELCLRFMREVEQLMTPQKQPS
Put plainly: Assay Method 2: rat FAAH-1 assay, 3H-anandamide hydrolysis in homogenate of SK-N-MC cells transfected with rat FAAH.

[3] abbreviates: read-out: Assay 1 IC50, Table 2, Comparative Examples, human FAAH.
[4] abbreviates: read-out: Assay 2 IC50, Table 2, Comparative Examples, rat FAAH-1.

Regarding `OC(CNc1cc(-c2ccsc2)ncn1)c1ccccc1` (centres unmarked) [CE7, 1-Phenyl-2-(6-thiophen-3-yl-pyrimidin-4-ylamino)-ethanol, reference compound], the IC50 in experiment [1] (setting [3]) and in experiment [2] (setting [4]) was above 10000 nM in each case.
On to `Cc1c(NC[C@H](O)c2ccccc2)ncnc1-c1ccc(C(F)(F)F)c(F)c1` [Example 48, (1R)-2-({6-[3-Fluoro-4-(trifluoromethyl)phenyl]-5-methylpyrimidin-4-yl}amino)-1-phenylethanol trifluoroacetic acid salt], for which the figures for the IC50 in experiment [1] and in experiment [2] were 105 nM and 1500 nM, respectively.
Taken in the same sequence, the figures for `OC(CNc1cc(-c2ccc(C(F)(F)F)c(Cl)c2)ncn1)c1cccc(OC(F)(F)F)c1` (centres unmarked) [Example 130, 2-({6-[3-Chloro-4-(trifluoromethyl)phenyl]pyrimidin-4-yl}amino)-1-[3-(trifluoromethoxy)phenyl]ethanol trifluoroacetic acid salt] were 120 nM and 15 nM.
Turning to `OC(CNc1cc(-c2ccc(C(F)(F)F)c(Cl)c2)ncn1)c1cc(C(F)(F)F)cc(C(F)(F)F)c1` (centres unmarked) [Example 217, 1-[3,5-Bis(trifluoromethyl)phenyl]-2-({6-[3-chloro-4-(trifluoromethyl)phenyl]pyrimidin-4-yl}amino)ethanol], the IC50 in experiment [1] was above 10000 nM; in experiment [2], 8000 nM.
In the same order, the values of `NCCNc1nc(NC[C@H](O)c2ccccc2)cc(-c2ccc(C(F)(F)F)c(Cl)c2)n1` [Example 157, (1R)-2-({2-[(2-Aminoethyl)amino]-6-[3-chloro-4-(trifluoromethyl)phenyl]pyrimidin-4-yl}amino)-1-phenylethanol trifluoroacetic acid salt] are 2000 nM and 4000 nM.
As to `O[C@@H](CNc1cc(-c2cc(F)cc(C(F)(F)F)c2)ncn1)c1ccccc1` [Example 42, (1R)-2-({6-[3-Fluoro-5-(trifluoromethyl)phenyl]pyrimidin-4-yl}amino)-1-phenylethanol trifluoroacetic acid salt], the IC50 amounted to 206 nM in experiment [1] and 793 nM in experiment [2].
In the same order, the values of `C[C@H]([C@H](O)c1ccccc1)N(C)c1cc(-c2ccc(OC(F)(F)F)cc2)ncn1` [Example 120, (1R,2R)-2-[Methyl(6-{4-[(trifluoromethyl)oxy]phenyl}pyrimidin-4-yl)amino]-1-phenylpropan-1-ol] are above 10000 nM and above 10000 nM.
With `Oc1ccc(-c2cc(NCC(O)c3ccccc3)ncn2)cc1` (centres unmarked) [CE6, 4-[6-(2-Hydroxy-2-phenyl-ethylamino)-pyrimidin-4-yl]-phenol, reference compound], the IC50 in experiment [1] (setting [3]) was 7000 nM; in experiment [2] (setting [4]), above 10000 nM.
For the molecule `CN(C)c1ccc(-c2cc(NC[C@H](O)c3ccccc3)ncn2)cc1` [Example 65, (1R)-2-({6-[4-(Dimethylamino)phenyl]pyrimidin-4-yl}amino)-1-phenylethanol], the IC50 in experiment [1] was determined as 38 nM; in experiment [2], 6000 nM.
Turning to `OC(CNc1cc(-c2c(F)cccc2F)ncn1)c1ccccc1` (centres unmarked) [CE4, 2-[6-(2,6-Difluoro-phenyl)-pyrimidin-4-ylamino]-1-phenyl-ethanol, reference compound], the IC50 in experiment [1] (setting [3]) and in experiment [2] (setting [4]) was above 10000 nM in each case.
With `OCCNc1nc(NC[C@H](O)c2ccccc2)cc(-c2ccc(C(F)(F)F)c(Cl)c2)n1` [Example 160, (1R)-2-({6-[3-Chloro-4-(trifluoromethyl)phenyl]-2-[(2-hydroxyethyl)amino]pyrimidin-4-yl}amino)-1-phenylethanol trifluoroacetic acid salt], the IC50 in experiment [1] amounted to 150 nM; in experiment [2], 290 nM.
Taken in the same sequence, the figures for `OC(CNc1cc(-c2ccc(C(F)(F)F)c(Cl)c2)ncn1)c1ccc2ccccc2c1` (centres unmarked) [Example 192, 2-({6-[3-Chloro-4-(trifluoromethyl)phenyl]pyrimidin-4-yl}amino)-1-naphthalen-2-ylethanol] were 47 nM and 6 nM.
In the same order, the values of `O[C@@H](CNc1cc(-c2ccc(C(F)(F)F)c(Cl)c2)nc(C(F)(F)F)n1)c1ccccc1` [Example 93, (1R)-2-({6-[3-Chloro-4-(trifluoromethyl)phenyl]-2-(trifluoromethyl)pyrimidin-4-yl}amino)-1-phenylethanol trifluoroacetic acid salt] are 183 nM and 152 nM.
In the same order, the values of `O[C@H](CNc1cc(-c2ccc(C(F)(F)F)c(Cl)c2)ncn1)c1ccc(Cl)c(F)c1` [Example 145, (1S)-1-(4-Chloro-3-fluoro-phenyl)-2-[6-(3-chloro-4-trifluoromethyl-phenyl)-pyrimidin-4-ylamino]-ethanol] are 7000 nM and 2000 nM.
Consider `O[C@@H](CNc1cc(-c2ccc(I)cc2)ncn1)c1ccccc1` [Example 142, (1R)-2-{[6-(4-Iodophenyl)pyrimidin-4-yl]amino}-1-phenylethanol], for which the 50% inhibitory concentration (IC50) is 9 nM in experiment [1] and 60 nM in experiment [2].
`O=[N+]([O-])c1cccc(-c2cc(NCC(O)c3ccccc3)ncn2)c1` (centres unmarked) [Example 234, 2-[6-(3-Nitro-phenyl)-pyrimidin-4-ylamino]-1-phenyl-ethanol]: the IC50 in experiment [1] and in experiment [2] was above 10000 nM throughout.
As for `Cc1ccc(-c2cc(NC[C@H](O)c3ccccc3)ncn2)cc1F` [Example 20, (1R)-2-{[6-(3-Fluoro-4-methylphenyl)pyrimidin-4-yl]amino}-1-phenylethanol trifluoroacetic acid salt], the IC50 in experiment [1] stood at 32 nM; in experiment [2] it was 181 nM.
In the same order, the values of `OC(CNc1cc(-c2ccc(C(F)(F)F)c(Cl)c2)ncn1)c1ccc(Cl)c(F)c1` (centres unmarked) [Example 133, 1-(4-Chloro-3-fluoro-Phenyl)-2-[6-(3-chloro-4-trifluoromethyl-phenyl)-pyrimidin-4-ylamino]-ethanol trifluoroacetic acid salt] are 30 nM and 15 nM.
Taken in the same sequence, the figures for `N#Cc1cc(-c2cc(NC[C@H](O)c3ccccc3)ncn2)ccc1F` [Example 89, 2-Fluoro-5-(6-{[(2R)-2-hydroxy-2-phenylethyl]amino}pyrimidin-4-yl)benzonitrile trifluoroacetic acid salt] were 1600 nM and 1400 nM.
Taken in the same sequence, the figures for `Cc1cc(C)cc(-c2cc(NC[C@H](O)c3ccccc3)ncn2)c1` [Example 40, (1R)-2-{[6-(3,5-Dimethylphenyl)pyrimidin-4-yl]amino}-1-phenylethanol trifluoroacetic acid salt] were 766 nM and above 10000 nM.
For the molecule `O=C(c1ccccc1)c1ccc(-c2cc(NC[C@H](O)c3ccccc3)ncn2)cc1` [Example 57, [4-(6-{[(2R)-2-Hydroxy-2-phenylethyl]amino}pyrimidin-4-yl)phenyl](phenyl)methanone trifluoroacetic acid salt], the IC50 amounted to 29 nM in experiment [1] and 535 nM in experiment [2].
Consider `O[C@@H](CNc1cc(-c2ccc(C(F)(C(F)(F)F)C(F)(F)F)cc2)ncn1)c1ccccc1` [Example 219, (1R)-Phenyl-2-{6-[4-(1,2,2,2-tetrafluoro-1-trifluoromethyl-ethyl)-phenyl]-pyrimidin-4-ylamino}-ethanol], for which the IC50 in experiment [1] is 2000 nM; in experiment [2], above 10000 nM.
On to `CC(C)Oc1ccc(-c2cc(NCC(O)c3ccccc3)ncn2)cc1` (centres unmarked) [Example 12, 2-[(6-{4-[(1-Methylethyl)oxy]phenyl}pyrimidin-4-yl)amino]-1-phenylethanol], for which the figures for the IC50 in experiment [1] and in experiment [2] were 186 nM and 382 nM, respectively.
In the same order, the values of `O[C@@H](CNc1cc(-c2ccc(C(F)(F)F)c(F)c2)ncn1)c1ccc(F)cc1` [Example 173, (1R)-1-(4-Fluorophenyl)-2-({6-[3-fluoro-4-(trifluoromethyl)phenyl]pyrimidin-4-yl}amino)ethanol] are 2 nM and 11 nM.
Take `O[C@@H](CNc1cc(-c2cccc(C(F)(C(F)(F)F)C(F)(F)F)c2)ncn1)c1ccccc1` [Example 220, (1R)-Phenyl-2-{6-[3-(1,2,2,2-tetrafluoro-1-trifluoromethyl-ethyl)-phenyl]-Pyrimidin-4-ylamino}-ethanol]: the values for the IC50 in experiment [1] and in experiment [2] were 42 nM and 690 nM, respectively.

By IC50 is commonly meant the midpoint of a concentration-inhibition curve.
